Reference: publication PMC3462775 (PLoS ONE, 2012)
Values after ≈ are worked out from the molar mass of the structure shown. Bridge positions count the residues as written; N and C are the ends. Square brackets hold non-standard residues; d marks the D form. Peptide text beside a SMILES is read from it. I, II: the chains in the order shown. βAla = NCCC(=O)O

Experiments:
P.aeruginosa ATCC 27853 = assay: MIC, standard microdilution assay; format: cell-based, Pseudomonas aeruginosa; conditions: Reference strain, wild type; CLSI microdilution, cation-supplemented Mueller-Hinton broth, 5x10^4 CFU/well, 18–20 h at 37°C, triplicate
Procedure: (§1) MICs were determined using a standard microdilution assay as recommended by the Clinical and Laboratory Standards Institute. Assays were performed in triplicate using cation-supplemented Mueller-Hinton (MH) broth (Becton Dickinson, Franklin Lakes, NJ, USA) and a bacterial inoculum of 5x10^4 CFU/well, in a final volume of 100 µl. The tested concentrations ranged from 0.1 µM to 24 µM for both peptides. Results were recorded after 18–20 h of incubation at 37°C.

S.aureus ATCC 29213 = assay: MIC, standard microdilution assay; format: cell-based, Staphylococcus aureus; conditions: Reference strain, wild type; CLSI microdilution, cation-supplemented Mueller-Hinton broth, 5x10^4 CFU/well, 18–20 h at 37°C, triplicate
Procedure: as §1

S.epidermidis ATCC 14990 = assay: MIC, standard microdilution assay; format: cell-based, Staphylococcus epidermidis; conditions: Reference strain, wild type; CLSI microdilution, cation-supplemented Mueller-Hinton broth, 5x10^4 CFU/well, 18–20 h at 37°C, triplicate
Procedure: as §1

[1] = system: S. aureus ATCC 25923 biofilm; format: cell-based, Staphylococcus aureus; conditions: ATCC 25923, 2 h
Procedure: Biofilm formation was performed by adapting the procedure described in [39] using the Calgary Biofilm Device (Innovotech, Innovotech Inc. Edmonton, Canada). Briefly, 96-well plates containing the bacterial inoculum were sealed with lids bearing 96 pegs on which the biofilm could build up. The plates were placed in an orbital incubator at 35°C (for P. aeruginosa and E. coli) or 37°C (for S. aureus) for 20 h under agitation at 125 rpm. Once biofilms formed, the lids were removed from the plates and the pegs were rinsed twice with phosphate buffered saline (PBS) to remove planktonic cells. The peg-lid was then transferred to a 96-well challenge microtiter plate, each well containing 200 µl of a twofold serial dilution of each peptide in LB medium. The challenge plate was incubated at 37°C for 2 hours. Peptide activity on pre-formed biofilm was evaluated by two independent methods: (i) visual observation of bacterial growth and (ii) counting of living bacterial cells after peptide treatment. In the first case, the peg-lid was removed from the challenge plate, rinsed with PBS and used to cover a 96-well recovery microtiter plate, each well containing 200 µl LB medium. […] Colony forming units (CFU) were expressed as percentage with respect to control (peptide-untreated biofilms). […]

[2] = biological target: T1, Pseudomonas aeruginosa elastase (Pseudomonas aeruginosa, UniProt P14756); format: in vitro ADME; conditions: 1 mM CaCl2 pH 7.8, 37°C; for stability to elastase (in words): HPLC and MS
T1 construct: purchased Calbiochem
Procedure: (§2) Tetrabranched M33-L or M33-D peptides (300 µg) were incubated at 37°C with Staphylococcus aureus aureolysin (3 µg, BioCol GmbH) or Pseudomonas aeruginosa elastase (3 µg, Calbiochem) in 300 µl 20 mM Tris-HCl, 1 mM CaCl2 pH 7.8. At indicated time intervals, 50 µl aliquots were removed, diluted with 950 µl of 0.1% trifluoroacetic acid (TFA)/water and analyzed by HPLC and mass spectrometry. Liquid chromatography was performed on Phenomenex Jupiter C18 analytical column (300 Å, 5 µm, 250×4.6 mm) in a 30 min gradient, using TFA 0.1%/water as solvent A and methanol as solvent B. Mass spectrometry analysis was performed on withdrawn samples and repeated on HPLC-eluted peaks with a Bruker Daltonic ultraflex MALDI TOF/TOF mass spectrometer.

[3] = biological target: T2, Staphylococcus aureus aureolysin (Staphylococcus aureus, UniProt P81177); format: in vitro ADME; conditions: 1 mM CaCl2 pH 7.8, 37°C; for time of stability / degradation on incubation with aureolysin: 300 µg peptide + 3 µg S. aureus aureolysin in 300 µl 20 mM Tris-HCl, HPLC and MALDI MS read-out
T2 construct: purchased BioCol GmbH
Procedure: as §2

[4] = Calcein release from liposomes mimicking the membrane of S. aureus; conditions: CL/PG 4∶6 liposomes, 50 µM lipid, 10 min at 20°C, peptide 0,5 to 15 µM, fluorescence 490/517 nm, three independent experiments
Source text: (§3) To investigate interaction of peptides M33-D and M33-L with the bacterial membrane, including possible perturbation, we used vesicles with two lipid compositions to mimic the membrane of S. aureus (CL/PG, 4∶6 mol/mol) and E. coli (PE/PG, 7∶3 mol/mol). […] The peptide-induced effect was dose-dependent in both vesicle lipid compositions. […] No significant differences in the effects induced by M33-D and M33-L were evident, although the D peptide seemed slightly more efficient towards CL/PG liposomes at doses above 8 µM. […] The greater perturbing effect of both forms of M33 on PE/PG vesicles, compared to vesicles containing cardiolipin, was evident.
(§4) Calcein-loaded liposomes of two different composition (PE/PG, 7∶3 mol/mol and CL/PG, 4∶6 mol/mol) were prepared as follows. […] Lipid concentration of vesicles was measured by the method of Stewart and the final concentration used for all measurements was 50 µM. Calcein fluorescence in the vesicles is self-quenched and leakage was measured by relief of quenching; the measurements were carried out at 517 nm, exciting at 490 nm, with a Perkin-Elmer LS 50B spectrofluorimeter. […] Leakage was calculated by the equation: [drawing 1] where F and Ft are fluorescence […] addition of detergent and F0 the fluorescence of intact vesicles.

[5] = Calcein release from liposomes mimicking the membrane of E. coli; conditions: PE/PG 7∶3 liposomes, 50 µM lipid, 10 min at 20°C, peptide 0,5 to 15 µM, fluorescence 490/517 nm, three independent experiments
Source text: as §3, §4

[6] = 300 µg peptide + 3 µg P. aeruginosa elastase, 20 mM Tris-HCl

T1 sequence (P14756 198-498): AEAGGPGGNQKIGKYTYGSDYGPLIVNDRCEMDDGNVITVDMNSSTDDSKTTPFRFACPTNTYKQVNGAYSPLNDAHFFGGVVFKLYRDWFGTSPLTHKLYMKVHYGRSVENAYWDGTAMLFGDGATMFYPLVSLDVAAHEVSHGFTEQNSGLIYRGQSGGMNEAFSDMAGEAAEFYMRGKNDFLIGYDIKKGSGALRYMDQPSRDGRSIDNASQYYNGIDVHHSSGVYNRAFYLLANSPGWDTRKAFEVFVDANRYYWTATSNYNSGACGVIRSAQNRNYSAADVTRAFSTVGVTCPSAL
T2 sequence (P81177 209-509): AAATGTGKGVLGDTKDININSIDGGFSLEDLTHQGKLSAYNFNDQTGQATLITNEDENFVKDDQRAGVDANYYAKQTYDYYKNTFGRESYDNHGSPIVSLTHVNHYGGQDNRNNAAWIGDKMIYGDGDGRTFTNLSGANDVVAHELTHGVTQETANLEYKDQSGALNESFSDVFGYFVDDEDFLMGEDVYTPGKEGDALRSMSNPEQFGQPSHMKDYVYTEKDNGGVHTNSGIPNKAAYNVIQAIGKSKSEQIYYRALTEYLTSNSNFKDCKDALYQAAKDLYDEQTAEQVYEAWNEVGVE

SMILES	MIC (P.aeruginosa ATCC 27853)	MIC (S.aureus ATCC 29213)	MIC (S.epidermidis ATCC 14990)	Minimum bactericidal concentration on biofilm (MBCb) [1]	time of resistance to degradation by elastase ([2]; 300 µg peptide + 3 µg P. aeruginosa elastase in 300 µl 20 mM Tris-HCl, HPLC and MALDI MS read-out)	stability to elastase (in words) [2, 6]	time of stability / degradation on incubation with aureolysin [3]	peptide concentration giving maximum calcein release [4]	peptide concentration giving total calcein leakage [5]	stability after 5 h incubation with elastase (in words) ([2]; 5 h, 300 µg peptide + 3 µg P. aeruginosa elastase, 20 mM Tris-HCl, HPLC peak of intact peptide still present)	stability to aureolysin (in words) ([3]; 300 µg peptide + 3 µg S. aureus aureolysin, 20 mM Tris-HCl, HPLC and MS)
CC[C@@H](C)[C@@H](NC(=O)[C@@H](CCCCN)NC(=O)[C@H](N)CCCCN)C(=O)N[C@H](CCCNC(=N)N)C(=O)N[C@@H](C(=O)N[C@H](CCCNC(=N)N)C(=O)N[C@H](CC(C)C)C(=O)N[C@H](CO)C(=O)N[C@H](C)C(=O)NCCCC[C@H](NC(=O)[C@@H](C)NC(=O)[C@@H](CO)NC(=O)[C@@H](CC(C)C)NC(=O)[C@@H](CCCNC(=N)N)NC(=O)[C@H](NC(=O)[C@@H](CCCNC(=N)N)NC(=O)[C@H](NC(=O)[C@@H](CCCCN)NC(=O)[C@H](N)CCCCN)[C@H](C)CC)C(C)C)C(=O)NCCCC[C@H](NC(=O)[C@H](CCCCNC(=O)[C@@H](C)NC(=O)[C@@H](CO)NC(=O)[C@@H](CC(C)C)NC(=O)[C@@H](CCCNC(=N)N)NC(=O)[C@H](NC(=O)[C@@H](CCCNC(=N)N)NC(=O)[C@H](NC(=O)[C@@H](CCCCN)NC(=O)[C@H](N)CCCCN)[C@H](C)CC)C(C)C)NC(=O)[C@@H](C)NC(=O)[C@@H](CO)NC(=O)[C@@H](CC(C)C)NC(=O)[C@@H](CCCNC(=N)N)NC(=O)[C@H](NC(=O)[C@@H](CCCNC(=N)N)NC(=O)[C@H](NC(=O)[C@@H](CCCCN)NC(=O)[C@H](N)CCCCN)[C@H](C)CC)C(C)C)C(=O)NCCC(=O)O)C(C)C [M33-D] (I: H-[dK][dK][dI][dR][dV][dR][dL][dS][dA]KK[βAla]-OH / II: H-[dK][dK][dI][dR][dV][dR][dL][dS][dA]K / III: H-[dK][dK][dI][dR][dV][dR][dL][dS][dA] / IV: H-[dK][dK][dI][dR][dV][dR][dL][dS][dA]; amide I:10-IV:C, I:11-II:C, II:10-III:C; N-terminus assumed)	1.5 µM (≈ 7.02 µg/mL)	1.5 µM (≈ 7.02 µg/mL)	0.4 µM (≈ 1.87 µg/mL)	1.5 µM (≈ 7.02 µg/mL)	≥ 24 h	highly stable	≥ 24 h	greater than 10 µM	5 µM	–	–
CC[C@H](C)[C@H](NC(=O)[C@H](CCCCN)NC(=O)[C@@H](N)CCCCN)C(=O)N[C@@H](CCCNC(=N)N)C(=O)N[C@H](C(=O)N[C@@H](CCCNC(=N)N)C(=O)N[C@@H](CC(C)C)C(=O)N[C@@H](CO)C(=O)N[C@@H](C)C(=O)NCCCC[C@H](NC(=O)[C@H](C)NC(=O)[C@H](CO)NC(=O)[C@H](CC(C)C)NC(=O)[C@H](CCCNC(=N)N)NC(=O)[C@@H](NC(=O)[C@H](CCCNC(=N)N)NC(=O)[C@@H](NC(=O)[C@H](CCCCN)NC(=O)[C@@H](N)CCCCN)[C@@H](C)CC)C(C)C)C(=O)NCCCC[C@H](NC(=O)[C@H](CCCCNC(=O)[C@H](C)NC(=O)[C@H](CO)NC(=O)[C@H](CC(C)C)NC(=O)[C@H](CCCNC(=N)N)NC(=O)[C@@H](NC(=O)[C@H](CCCNC(=N)N)NC(=O)[C@@H](NC(=O)[C@H](CCCCN)NC(=O)[C@@H](N)CCCCN)[C@@H](C)CC)C(C)C)NC(=O)[C@H](C)NC(=O)[C@H](CO)NC(=O)[C@H](CC(C)C)NC(=O)[C@H](CCCNC(=N)N)NC(=O)[C@@H](NC(=O)[C@H](CCCNC(=N)N)NC(=O)[C@@H](NC(=O)[C@H](CCCCN)NC(=O)[C@@H](N)CCCCN)[C@@H](C)CC)C(C)C)C(=O)NCCC(=O)O)C(C)C [M33-L] (I: H-KKIRVRLSAKK[βAla]-OH / II: H-KKIRVRLSAK / III: H-KKIRVRLSA / IV: H-KKIRVRLSA; amide I:10-IV:C, I:11-II:C, II:10-III:C; N-terminus assumed)	1.5 µM (≈ 7.02 µg/mL)	6 µM (≈ 28.1 µg/mL)	1.5 µM (≈ 7.02 µg/mL)	12 µM (≈ 56.2 µg/mL)	–	poorly stable	≤ 1 h	greater than 10 µM	5 µM	moderate peptide stability	not at all stable
